Data published in patent publication US20160075653A1, “NEMATICIDAL N-(PHENYLCYCLOALKYL)CARBOXAMIDES AND N-(PHENYLCYCLOALKYL)THIOCARBOXAMIDES” (BAYER CROPSCIENCE AKTIENGESELLSCHAFT, priority 2013, published 2016).

Assay: Measurement of log P values by HPLC on reversed phase columns (methods [a] pH 2.3, [b] pH 2.7, [c] pH 7.8)
Assay type: physicochemical
Settings: HPLC reversed phase, method [b] (pH 2.7)
Method in brief: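 Determined per EEC Directive 79/831 Annex V.A8 by reversed-phase HPLC, 10-95% acetonitrile gradient: [a] pH 2.3, 0.1% phosphoric acid; [b] LC-MS, pH 2.7, 0.1% formic acid; [c] LC-MS, pH 7.8, 0.001 molar ammonium hydrogen carbonate. Calibrated with C3-C16 alkan-2-ones by retention-time interpolation.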

logP | SMILES
3.68^[b] | O=C(NC1CCCC1c1ccc(C(F)(F)F)cc1)c1ccccc1Cl (stereo not shown) [Example 305]
4.46^[b] | CN(C(=O)c1ccccc1C(F)(F)F)C1CCCC1c1ccc(C(F)(F)F)cc1 (stereo not shown) [Example 307]
3.05^[b] | O=C(NC1CCCC1c1c(F)cccc1F)c1c(F)cccc1F (stereo not shown) [Example 314]
3.38^[b] | O=C(NC1CCCC1c1ccccc1C(F)(F)F)c1c(F)cccc1F (stereo not shown) [Example 320]
2.13^[b] | Cc1nn(C)cc1C(=O)NC1CCCC1c1c(F)cccc1F (stereo not shown) [Example 324]
2.86^[b] | Cc1nc(C)c(C(=O)NC2CCCC2c2ccccc2Br)s1 (stereo not shown) [Example 344]
3.69^[b] | Cc1nn(C)cc1C(=O)NC1CCCC1c1ccccc1Br (stereo not shown) [Example 345]
3.35^[b] | O=C(NC1CCCC1c1ccccc1Br)c1c(F)cccc1F (stereo not shown) [Example 347]
3.73^[b] | O=C(NC1CCCC1c1ccc(Cl)cc1Cl)c1c(F)cccc1F (stereo not shown) [Example 350]
3.71^[b] | O=C(NC1CCCC1c1ccccc1Br)c1ccccc1C(F)(F)F (stereo not shown) [Example 355]
3.20^[b] | O=C(NC1CCCC1c1ccc(Cl)cc1Cl)c1cccnc1Cl (stereo not shown) [Example 356]
3.67^[b] | O=C(NC1CCCC1c1ccccc1Br)c1ccccc1I (stereo not shown) [Example 357]
3.01^[b] | O=C(NC1CCCC1c1ccccc1Cl)c1cccnc1C(F)(F)F (stereo not shown) [Example 361]
2.86^[b] | O=C(NC1CCCC1c1c(F)cccc1F)c1cccnc1C(F)(F)F (stereo not shown) [Example 362]
4.12^[b] | O=C(NC1CCCCC1c1ccc(C(F)(F)F)cc1)c1ccccc1C(F)(F)F (stereo not shown) [Example 365]
3.03^[b] | Cc1nc(C)c(C(=O)NC2CCCCC2c2ccc(Cl)cc2)s1 (stereo not shown) [Example 366]
3.84^[b] | O=C(NC1CCCCC1c1ccc(Cl)cc1)c1ccccc1I (stereo not shown) [Example 372]
4.21^[b] | O=C(NC1CCCCC1c1ccccc1C(F)(F)F)c1ccccc1C(F)(F)F (stereo not shown) [Example 374]
2.64^[b] | Cc1nn(C)cc1C(=O)NC1CCCCC1c1ccccc1Cl (stereo not shown) [Example 377]
3.88^[b] | O=C(NC1CCCCC1c1ccccc1Cl)c1ccccc1Cl (stereo not shown) [Example 381]

logP | SMILES
4.01^[b] | O=C(NC1CCCCC1c1ccccc1Cl)c1ccccc1C(F)(F)F (stereo not shown) [Example 383]
2.87^[b] | Cc1nn(C)cc1C(=O)NC1CCCCC1c1ccccc1C(F)(F)F (stereo not shown) [Example 384]
3.33^[b] | O=C(NC1CCCCC1c1ccccc1C(F)(F)F)c1cccnc1Cl (stereo not shown) [Example 387]
4.02^[b] | O=C(NC1CCCCC1c1ccccc1C(F)(F)F)c1ccccc1Cl (stereo not shown) [Example 388]
4.11^[b] | O=C(NC1CCCCC1c1ccccc1C(F)(F)F)c1ccccc1C(F)(F)F (stereo not shown) [Example 390]
3.18^[b] | O=C(NC1CCCC1c1ccccc1Cl)c1c(F)cccc1F (stereo not shown) [Example 391]
3.68^[b] | O=C(NC1CCCCC1c1c(F)cccc1F)c1ccccc1Cl (stereo not shown) [Example 396]
2.99^[b] | O=C(NC1CCCCC1c1c(F)cccc1F)c1cccnc1Cl (stereo not shown) [Example 397]
3.87^[b] | O=C(NC1CCCCC1c1c(F)cccc1F)c1ccccc1C(F)(F)F (stereo not shown) [Example 399]
4.12^[b] | O=C(NC1CCCCC1c1ccccc1Br)c1ccccc1I (stereo not shown) [Example 406]
3.76^[b] | O=C(NC1CCCCC1c1ccc(Cl)cc1Cl)c1cccnc1Cl (stereo not shown) [Example 408]
4.47^[b] | O=C(NC1CCCCC1c1ccc(Cl)cc1Cl)c1ccccc1Cl (stereo not shown) [Example 409]
3.88^[b] | Cc1nc(C)c(C(=O)NC2CCCCC2c2ccc(Cl)cc2Cl)s1 (stereo not shown) [Example 410]
4.49^[b] | O=C(NC1CCCCC1c1ccc(Cl)cc1Cl)c1ccccc1C(F)(F)F (stereo not shown) [Example 412]
4.59^[b] | O=C(NC1CCCCCC1c1ccccc1C(F)(F)F)c1ccccc1I (stereo not shown) [Example 419]
3.69^[b] | Cn1cc(C(=O)NC2CCCCCC2c2ccccc2C(F)(F)F)c(C(F)F)n1 (stereo not shown) [Example 421]
3.13^[b] | O=C(NC1CC1c1ccc(Cl)cc1)c1ccccc1Br (stereo not shown) [Example 423]
3.59^[b] | O=C(NC1CCC1c1ccccc1C(F)(F)F)c1cccc(Cl)c1 (stereo not shown) [Example 436]
3.88^[b] | O=C(NC1CCC1c1ccccc1C(F)(F)F)c1ncc(C(F)(F)F)cc1Cl (stereo not shown) [Example 437]

Further lines, the molecule ahead of its results:

SMILES | logP
Cc1nc(C)c(C(=O)NC2CCCC2c2ccccc2C(F)(F)F)s1 (stereo not shown) [Example 308] | 2.97^[b]
O=C(NC1CCCC1c1ccccc1C(F)(F)F)c1cccnc1C(F)(F)F (stereo not shown) [Example 309] | 3.22^[b]
Cc1nn(C)cc1C(=O)NC1CCCC1c1ccccc1C(F)(F)F (stereo not shown) [Example 310] | 2.47^[b]
Cc1nc(C)c(C(=O)NC2CCCC2c2c(F)cccc2F)s1 (stereo not shown) [Example 312] | 2.65^[b]
O=C(NC1CCCC1c1c(F)cccc1F)c1cccnc1Cl (stereo not shown) [Example 321] | 2.51^[b]
O=C(NC1CCCC1c1ccc(Cl)cc1Cl)c1ccccc1Cl (stereo not shown) [Example 351] | 3.87^[b]
Cc1nc(C)c(C(=O)NC2CCCC2c2ccc(Cl)cc2Cl)s1 (stereo not shown) [Example 354] | 3.24^[b]
Cc1nn(C)cc1C(=O)NC1CCCC1c1ccc(Cl)cc1Cl (stereo not shown) [Example 359] | 2.67^[b]
O=C(NC1CCCC1c1ccc(C(F)(F)F)cc1)c1ccccc1I (stereo not shown) [Example 363] | 3.86^[b]
O=C(NC1CCCCC1c1ccc(Cl)cc1)c1ccccc1C(F)(F)F (stereo not shown) [Example 364] | 3.84^[b]
Cc1nn(C)cc1C(=O)NC1CCCCC1c1ccc(Cl)cc1 (stereo not shown) [Example 367] | 2.49^[b]
O=C(NC1CCCCC1c1ccc(Cl)cc1)c1cccnc1C(F)(F)F (stereo not shown) [Example 368] | 3.31^[b]
O=C(NC1CCCCC1c1ccc(Cl)cc1)c1c(F)cccc1F (stereo not shown) [Example 369] | 3.50^[b]
O=C(NC1CCCCC1c1ccc(Cl)cc1)c1cccnc1Cl (stereo not shown) [Example 370] | 2.99^[b]
O=C(NC1CCCCC1c1ccc(Cl)cc1)c1ccccc1Cl (stereo not shown) [Example 371] | 3.65^[b]
O=C(NC1CCCCC1c1ccccc1C(F)(F)F)c1ccccc1I (stereo not shown) [Example 373] | 4.22^[b]
O=C(NC1CCCCC1c1ccccc1C(F)(F)F)c1cccnc1C(F)(F)F (stereo not shown) [Example 375] | 3.68^[b]
Cc1nc(C)c(C(=O)NC2CCCCC2c2ccccc2Cl)s1 (stereo not shown) [Example 376] | 3.24^[b]
O=C(NC1CCCCC1c1ccccc1Cl)c1cccnc1C(F)(F)F (stereo not shown) [Example 378] | 3.45^[b]
O=C(NC1CCCCC1c1ccccc1Cl)c1c(F)cccc1F (stereo not shown) [Example 379] | 3.67^[b]
O=C(NC1CCCCC1c1ccccc1Cl)c1cccnc1Cl (stereo not shown) [Example 380] | 3.16^[b]
O=C(NC1CCCCC1c1ccccc1Cl)c1ccccc1I (stereo not shown) [Example 382] | 4.02^[b]
O=C(NC1CCCCC1c1ccccc1C(F)(F)F)c1cccnc1C(F)(F)F (stereo not shown) [Example 385] | 3.61^[b]
O=C(NC1CCCCC1c1ccccc1C(F)(F)F)c1c(F)cccc1F (stereo not shown) [Example 386] | 3.80^[b]
O=C(NC1CCCCC1c1ccccc1C(F)(F)F)c1ccccc1I (stereo not shown) [Example 389] | 4.13^[b]

SMILES | logP
Cc1nc(C)c(C(=O)NC2CCCCC2c2ccccc2C(F)(F)F)s1 (stereo not shown) [Example 392] | 3.49^[b]
Cc1nn(C)cc1C(=O)NC1CCCCC1c1c(F)cccc1F (stereo not shown) [Example 393] | 2.51^[b]
Cc1nc(C)c(C(=O)NC2CCCCC2c2c(F)cccc2F)s1 (stereo not shown) [Example 394] | 3.16^[b]
O=C(NC1CCCCC1c1c(F)cccc1F)c1c(F)cccc1F (stereo not shown) [Example 395] | 3.44^[b]
O=C(NC1CCCCC1c1c(F)cccc1F)c1cccnc1C(F)(F)F (stereo not shown) [Example 398] | 3.26^[b]
O=C(NC1CCCCC1c1c(F)cccc1F)c1ccccc1I (stereo not shown) [Example 400] | 3.84^[b]
Cc1nc(C)c(C(=O)NC2CCCCC2c2ccccc2Br)s1 (stereo not shown) [Example 401] | 3.35^[b]
Cc1nn(C)cc1C(=O)NC1CCCCC1c1ccccc1Br (stereo not shown) [Example 402] | 2.74^[b]
O=C(NC1CCCCC1c1ccccc1Br)c1cccnc1C(F)(F)F (stereo not shown) [Example 403] | 3.53^[b]
O=C(NC1CCCCC1c1ccccc1Br)c1c(F)cccc1F (stereo not shown) [Example 404] | 3.78^[b]
O=C(NC1CCCCC1c1ccccc1Br)c1ccccc1Cl (stereo not shown) [Example 405] | 3.97^[b]
O=C(NC1CCCCC1c1ccccc1Br)c1ccccc1C(F)(F)F (stereo not shown) [Example 407] | 4.10^[b]
O=C(NC1CCCCC1c1ccc(Cl)cc1Cl)c1c(F)cccc1F (stereo not shown) [Example 411] | 4.26^[b]
O=C(NC1CCCCC1c1ccccc1Br)c1cccnc1Cl (stereo not shown) [Example 413] | 3.25^[b]
O=C(NC1CCCCC1c1ccc(Cl)cc1Cl)c1ccccc1I (stereo not shown) [Example 415] | 4.57^[b]
Cc1nn(C)cc1C(=O)NC1CCCCC1c1ccc(Cl)cc1Cl (stereo not shown) [Example 416] | 3.19^[b]
O=C(NC1CCCCCC1c1ccccc1C(F)(F)F)c1cccnc1C(F)(F)F (stereo not shown) [Example 418] | 3.94^[b]
O=C(NC1CCCCCC1c1ccccc1C(F)(F)F)c1ccccc1C(F)(F)F (stereo not shown) [Example 420] | 4.55^[b]
O=C(NC1CC1c1ccc(Cl)cc1)c1ccccc1F (stereo not shown) [Example 422] | 3.12^[b]
O=C(NC1CCC1c1ccccc1C(F)(F)F)c1ccccc1I (stereo not shown) [Example 428] | 3.42^[b]
O=C(NC1CCC1c1ccccc1C(F)(F)F)c1ccc(Cl)cc1 (stereo not shown) [Example 429] | 3.56^[b]
O=C(NC1CCC1c1ccccc1C(F)(F)F)c1ccccc1Cl (stereo not shown) [Example 433] | 3.01^[b]
O=C(NC1CCC1c1c(F)cccc1F)c1c(F)cccc1F (stereo not shown) [Example 439] | 2.83^[b]
O=C(NC1CCC1c1c(F)cccc1F)c1ccc(Cl)cc1Cl (stereo not shown) [Example 441] | 3.49^[b]

Same assay, conditions: HPLC reversed phase, method [c] pH 7.8

logP | SMILES
3.63^[c]; | O=C(NC1CCCC1c1ccc(C(F)(F)F)cc1)c1ccccc1Cl (stereo not shown) [Example 305]
4.40^[c]; | CN(C(=O)c1ccccc1C(F)(F)F)C1CCCC1c1ccc(C(F)(F)F)cc1 (stereo not shown) [Example 307]
4.05^[c]; | O=C(NC1CCCCC1c1ccc(C(F)(F)F)cc1)c1ccccc1C(F)(F)F (stereo not shown) [Example 365]
3.07^[c]; | O=C(NC1CC1c1ccc(Cl)cc1)c1ccccc1Br (stereo not shown) [Example 423]

Further lines, the molecule ahead of its results:

SMILES | logP
O=C(NC1CCCC1c1ccc(C(F)(F)F)cc1)c1ccccc1I (stereo not shown) [Example 363] | 3.79^[c];
O=C(NC1CC1c1ccc(Cl)cc1)c1ccccc1F (stereo not shown) [Example 422] | 3.07^[c];
